# Legend:
# [1] = test system: Pseudomonas aeruginosa NCTC-10490; experiment: antimicrobial activity, minimal inhibitory concentration (agar streak); type: cell-based; conditions: NCTC10490, heart infusion agar, 37° C., 20 hours, overnight culture 10^8 viable cells per ml
# Description: (§1) One loopful of an overnight culture of each test strain in Trypticase-soy broth (10^8 viable cells per ml.) was streaked on heart infusion agar (HI-agar) containing graded concentrations of antibiotics, and the minimal inhibitory concentration (MIC) was expressed in terms of μg/ml after incubation at 37° C. for 20 hours.
# Staphylococcus aureus 6 = experiment: as above; type: cell-based; conditions: heart infusion agar, 37° C., 20 hours, overnight culture 10^8 viable cells per ml
# Description: as §1
smiles,measurement,setting,value
"CC(C)(O)[C@@H]1C(=O)N2C(C(=O)[O-])=C(SCCN)C[C@H]12.[K+] [potassium (5R,6R)-3-(2-aminoethylthio)-6-(1-hydroxy-1-methylethyl)-7-oxo-1-azabicyclo[3.2.0]hept-2-ene-2-carboxylate]",MIC,[1],12.5 µg/mL
same,MIC,Staphylococcus aureus 6,1.56 µg/mL

# — patent US4539152A, “4-Substituted-2-oxoazetidine compounds” (Fujisawa Pharmaceutical Co., Ltd., priority 1980, dated 1985)
